The target in test [1] is T1, cellular TDO2 in HEK293-TDO2 cells (Homo sapiens, UniProt P48775).
T1 construct: expressed in transfected cells; host or cells: HEK293 (ATCC), stably transfected
As to the kind of experiment: 293-TDO2 cell-based assay (Kyn colorimetric). The following applies: 48 hours of incubation. On the procedure: The inhibitory activity of TDO2 inhibitors is determined by using a colorimetric reaction to measure Kyn generated from L-Trp (L-Tryptophon) oxidation by cellular TDO2 in HEK293-TDO2 cells stably transfected with a plasmid expression of Tryptophan 2,3-dioxygenase (for short, 293-TDO2).
HEK293 cells were obtained from the American Type Culture Collection and 293-TDO2 were recovered in 10% FBS-containing phenol red-free DMEM medium. Cells were plated onto a 96-well plate (100 μl/well) at 10000 cells per well and kept at 37° C. in a humidified incubator supplied with 5% CO2. 4 hours later, Compounds at different concentrations diluted in dimethylsulfoxide (DMSO) were added to plate. Cells were kept at 37° C. in a humidified incubator supplied with 5% CO2. After 48 hours of incubation, 100 μl supernatant from each well was removed to a new plate. The protein in the medium was precipitated with the addition of 8 μl 6N trichloroacetic acid. The plate was incubated at 60° C. for 30 minutes and then centrifugation at 2500 rpm for 10 minutes to remove sediments. 80 μl supernatants were carefully removed to a new clean plate and added with an equal volume of 2% 4-(Dimethylamino) benzaldehyde (D2004, sigma) dissolved in glacial acetic acid. The absorbance at 480 nm wavelength derived from Kyn was measured using a PHERAstar FS plate reader (BMG LABTECH). The IC50 for each compound was derived from fitting the dose-response data to the four-parameter logistic model by using XLfit software (IDBS).

The target in test [2] is T2, IDO1 (Homo sapiens, UniProt P14902). The test can be described thus: IDO1 enzymatic assay. The format is biochemical. More on the design: His tag (N); made in house; host or cells: E. coli. The following applies: read-out: Enzyme IC50 IDO1. Put shortly: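 Recombinant N-terminally His-tagged IDO1 purified from E. coli (50 nM) was incubated with compound or DMSO and 1.3 mM D-tryptophan, 5 mM L-ascorbic acid, methylene blue and 0.4 mg/mL catalase. The buffer was 50 mM potassium phosphate pH 7.5 with 0.1% BSA, at 24 °C for 1.5 hours. N'-formylkynurenine formation was then read continuously at 321 nm for 1 hour, and activity was taken as the slope. IC50 was calculated from remaining enzyme activity across increasing compound concentrations.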
T2 sequence (P14902 whole entry): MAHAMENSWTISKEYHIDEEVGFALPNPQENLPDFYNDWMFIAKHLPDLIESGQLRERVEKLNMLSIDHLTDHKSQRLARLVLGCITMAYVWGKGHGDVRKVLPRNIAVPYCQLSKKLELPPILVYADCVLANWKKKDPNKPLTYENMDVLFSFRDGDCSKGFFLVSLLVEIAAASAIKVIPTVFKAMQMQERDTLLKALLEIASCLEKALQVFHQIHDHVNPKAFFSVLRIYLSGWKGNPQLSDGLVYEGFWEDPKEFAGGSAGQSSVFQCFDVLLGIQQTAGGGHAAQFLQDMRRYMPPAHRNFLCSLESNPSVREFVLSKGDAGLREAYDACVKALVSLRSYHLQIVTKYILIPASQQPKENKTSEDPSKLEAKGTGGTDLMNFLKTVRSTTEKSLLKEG

Test [3] has as its target T2, IDO1. As to the kind of experiment: Hela cell-based IDO1 assay. The following applies: Hela cells. A digest of the protocol:
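HeLa cells were plated at 8000 per well in 96-well plates containing phenol red-free DMEM with 10% FBS, and after 4 hours compound dilutions made in DMSO were added together with IFN-γ (final 100 ng/mL) and 0.4 mM L-Trp before 48 hours at 37 °C, 5% CO2. Supernatants were deproteinised with trichloroacetic acid, mixed with 2% 4-(dimethylamino)benzaldehyde and read at 480 nm for kynurenine. Four-parameter logistic fits were run in XLfit. Potency was derived from these fits.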

Where only a bound is given, the exact number is not on record here.

T1 sequence (P48775 whole entry): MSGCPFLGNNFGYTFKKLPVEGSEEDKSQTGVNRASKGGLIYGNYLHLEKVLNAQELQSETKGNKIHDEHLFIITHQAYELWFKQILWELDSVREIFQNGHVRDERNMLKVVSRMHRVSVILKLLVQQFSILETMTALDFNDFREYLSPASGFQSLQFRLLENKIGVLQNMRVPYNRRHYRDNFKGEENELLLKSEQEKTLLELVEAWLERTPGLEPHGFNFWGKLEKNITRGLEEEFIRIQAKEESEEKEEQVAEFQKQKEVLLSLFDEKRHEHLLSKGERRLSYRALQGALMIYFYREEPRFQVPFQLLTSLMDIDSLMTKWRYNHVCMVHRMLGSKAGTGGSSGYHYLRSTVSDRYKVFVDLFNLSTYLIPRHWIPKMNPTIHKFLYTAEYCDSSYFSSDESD

What is called EC50 is the concentration giving half of the maximal effect. Read a low EC50 as a more potent agent. For orientation: IC50 means the concentration needed to halve the response being measured. `CC(C)c1ccc2cncn2c1C(O)C1CCC(c2ccc(F)cc2)CC1` (stereo not drawn) [Example D166, (4-(4-fluorophenyl)cyclohexyl)(6-isopropylimidazo[1,5-a]pyridin-5-yl)methanol]: the EC50 is more than 10000 nM in test [1] and 29 nM on IDO1 [3]. Besides, the IC50 on IDO1 [2] stood at 41 nM.
With `O[C@H](c1c(C2CC2)ccc2cncn12)C1CCN(c2ccc(Cl)cc2)CC1` (single isomer, unassigned) [Example D174a], the 50% effective concentration (EC50) in test [1] was more than 10000 nM; on IDO1 [3], 80 nM. On IDO1 [2], the half-maximal inhibitory concentration (IC50) was found to be 15 nM.
The matching figures for `NS(=O)(=O)Nc1ccc([C@H]2CC[C@H]([C@H](O)c3c(C4CC4)ccc4cncn34)CC2)cc1` [Example D165, 1-(4-((1 S,4r)-4-((S)-(6-cyclopropylimidazo[1,5-a]pyridin-5-yl)(hydroxy)methyl)cyclohexyl)phenyl) sulfuric diamide]: more than 10000 nM, 344 nM and 28 nM.
For the molecule `OC(c1c(C2CC2)ccn2cncc12)C1CCC(c2cccc3ncccc23)CC1` (stereo not drawn) [Example C126, (7-cyclopropylimidazo[1,5-a]pyridin-8-yl)(4-(quinolin-5-yl)cyclohexyl)methanol], the half-maximal effective concentration (EC50) in test [1] is more than 10000 nM; at IDO1 [3], 30 nM. For the same molecule, the half-inhibitory concentration (IC50) at IDO1 [2] is 29 nM.
Taken in the same sequence, the figures for `OC(c1c(C2CC2)ccc2cncn12)C1CCC(c2cccc3ncccc23)CC1` (stereo not drawn) [Example D141, (6-cyclopropylimidazo[1,5-a]pyridin-5-yl)(4-(quinolin-5-yl)cyclohexyl)methanol] were more than 10000 nM, 21 nM and 23 nM.
For the molecule `OC(c1c(C2CC2)ccc2cncn12)C1CCN(c2ccc3nccc(Cl)c3c2)CC1` (stereo not drawn) [Example D179, (1-(4-chloroquinolin-6-yl)piperidin-4-yl)(6-cyclopropylimidazo[1,5-a]pyridin-5-yl)methanol], the EC50 in test [1] is more than 10000 nM; at IDO1 [3] it was 187 nM. For the same molecule, the half-maximal inhibitory concentration (IC50) on IDO1 [2] was found to be 26 nM.
The matching figures for `Cc1ccc([C@H]2CC[C@H]([C@@H](O)c3c(C4CC4)ccn4cncc34)CC2)cc1` (single isomer, unassigned) [Example C110b]: more than 10000 nM, more than 10000 nM and more than 10000 nM.
Regarding `O[C@@H](c1c(C2CC2)ccn2cncc12)[C@H]1CC[C@H](c2cccc3ncccc32)CC1` (single isomer, unassigned) [Example C126b], the values for the EC50 (in test [1]; at IDO1 [3]) were more than 10000 nM and 6050 nM, respectively. Further, the 50% inhibitory concentration (IC50) at IDO1 [2] was 1900 nM.
Taken in the same sequence, the figures for `Oc1ccccc1[C@H]1CC[C@H]([C@H](O)c2c(C3CC3)ccc3cncn23)CC1` (single isomer, unassigned) [Example D112a] were more than 10000 nM, 26 nM and 15 nM.
The matching figures for `O[C@@H](c1cc(Cl)cc2cncn12)[C@H]1CC[C@H](c2ccc(Cl)cc2)CC1` (single isomer, unassigned) [Example E101b]: more than 10000 nM, more than 10000 nM and 2800 nM.
Taken in the same sequence, the figures for `CC(C)c1ccc2cncn2c1[C@H](O)[C@H]1CC[C@H](c2ccc(Cl)cc2)CC1` (single isomer, unassigned) [Example D115b] were more than 10000 nM, 5680 nM and 4300 nM.
`COCCOc1ccc([C@H]2CC[C@H]([C@@H](O)c3c(C4CC4)ccn4cncc34)CC2)cc1` (single isomer, unassigned) [Example C103b]: the values for the EC50 (in test [1]; on IDO1 [3]) were more than 10000 nM and 2980 nM, respectively. Further, the IC50 at IDO1 [2] stood at 1200 nM.
The matching figures for `CN(C)C(=O)c1ccc(C2CCC(C(O)c3c(C4CC4)ccc4cncn34)CC2)cc1` (stereo not drawn) [Example D125, 4-(4-((6-cyclopropylimidazo[1,5-a]pyridin-5-yl)(hydroxy)methyl)cyclohexyl)-N,N-dimethylbenzamide]: more than 10000 nM, 843 nM and 24 nM.
Taken in the same sequence, the figures for `O=C(COc1ccc([C@H]2CC[C@H]([C@H](O)c3c(C4CC4)ccc4cncn34)CC2)cc1)c1ccccc1` [Example D152, 2-(4-((1S,4r)-4-((S)-(6-cyclopropylimidazo[1,5-a]pyridin-5-yl)(hydroxy)methyl)cyclohexyl)henoxy)-1-phenylethan-1-one] were more than 10000 nM, 118 nM and 37 nM.
The matching figures for `OC(c1c(C2CC2)ccc2cncn12)C1CCC(c2cccc(F)c2F)CC1` (stereo not drawn) [Example D132, (6-cyclopropylimidazo[1,5-a]pyridin-5-yl)(4-(2,3-difluorophenyl)cyclohexyl)methanol]: more than 10000 nM, 378 nM and 55 nM.
Take `O[C@@H](c1c(C2CC2)ccc2cncn12)[C@H]1CC[C@H](c2ccc(F)cc2)CC1` (single isomer, unassigned) [Example D104b]: the concentration giving a half-maximal response (EC50) in test [1] is more than 10000 nM; at IDO1 [3], 6830 nM. Further, on IDO1 [2], the IC50 came to 9900 nM.
The matching figures for `O[C@H](c1c(C2CC2)ccc2cncn12)[C@H]1CC[C@H](c2ccccc2Cl)CC1` (single isomer, unassigned) [Example D117a]: more than 10000 nM, 492 nM and 30 nM.
Taken in the same sequence, the figures for `O[C@@H](c1c(C2CC2)ccc2cncn12)C1CCN(c2ccc(F)c3ncccc23)CC1` (single isomer, unassigned) [Example D175b] were more than 10000 nM, 407 nM and 740 nM.
The matching figures for `O[C@H](c1c(C2CC2)ccc2cncn12)C1CCN(c2ccc(F)cc2)CC1` (single isomer, unassigned) [Example D171a]: more than 10000 nM, 30 nM and 15 nM.
In the case of `OC(c1c(C2CC2)ccc2cncn12)C1CCC(c2cccc(F)c2)CC1` (stereo not drawn) [Example D156, (6-cyclopropylimidazo[1,5-a]pyridin-5-yl)(4-(3-fluorophenyl)cyclohexyl)methanol], the EC50 in test [1] is more than 10000 nM; at IDO1 [3], 75 nM. Besides, the IC50 on IDO1 [2] was 57 nM.
Taken in the same sequence, the figures for `OC(c1c(C2CC2)ccn2cncc12)C1CCN(c2ccc(F)cc2)CC1` (single isomer, unassigned) [Example C137b] were more than 10000 nM, more than 10000 nM and 4100 nM.
Taken in the same sequence, the figures for `OC(c1c(C2CC2)ccn2cncc12)C1CCC(c2ccc3c(c2)OCO3)CC1` (stereo not drawn) [Example C123, (4-(benzo[dl][1,3]dioxol-5-yl)cyclohexyl)(7-cyclopropylimidazo[1,5-a]pyridin-8-yl) methanol] were more than 10000 nM, 372 nM and 15 nM.
The matching figures for `OC(c1c(C2CC2)ccc2cncn12)C1CCN(c2cccc(F)c2)CC1` (stereo not drawn) [Example D172]: more than 10000 nM, 58 nM and 28 nM.
Turning to `N#Cc1ccc(C2CCC(C(O)c3c(C4CC4)ccc4cncn34)CC2)cc1` (stereo not drawn) [Example D110, 4-(4-((6-cyclopropylimidazo[1,5-a]pyridin-5-yl)(hydroxy)methyl)cyclohexyl)benzonitrile], the EC50 in test [1] is more than 10000 nM; at IDO1 [3] it was 373 nM. The half-maximal inhibitory concentration (IC50) on IDO1 [2] came out at 40 nM.
The matching figures for `O[C@H](c1c(C2CC2)ccn2cncc12)[C@H]1CC[C@H](c2cccc3ncccc32)CC1` (single isomer, unassigned) [Example C126a]: more than 10000 nM, 20 nM and 16 nM.
Taken in the same sequence, the figures for `OC(c1cc(Cl)cc2cncn12)C1CCC(c2cccc3ccccc23)CC1` (stereo not drawn) [Example E103, (7-chloroimidazo[1,5-a]pyridin-5-yl)(4-(naphthalen-1-yl)cyclohexyl)methanol] were more than 10000 nM, 2320 nM and 43 nM.
Taken in the same sequence, the figures for `OC(c1c(C2CC2)ccn2cncc12)C1CCN(c2ccc(F)c(F)c2)CC1` (stereo not drawn) [Example C141, (7-cyclopropylimidazo[1,5-a]pyridin-8-yl)(1-(3,4-difluorophenyl)piperidin-4-yl)methanol] were more than 10000 nM, 105 nM and 76 nM.

Values taken from patent publication US10882856B2 (BeiGene, Ltd., priority 2017, dated 2021).
